Laboratory results published in patent publication US6949648B2, “Condensed pyrazole derivatives, process for producing the same and use thereof” (Takeda Pharmaceutical Company Limited, priority 2000, dated 2005).
Like-named read-outs stand apart in the source and are kept apart here. Marks after values point to notes of the source that are not given here.

Assays:
[1] = system: mucosa of small intestine; assay: Disorder of mucosa of small intestine; assay type: in vivo, SD rats; conditions: 300 mg/kg orally, freely fed rats, 6 hours after dosing
Procedure: Disorder of Mucosa of Small Intestine Male SD origin male-rats (7 weeks old, CLEA Japan) were used. To the rats freely fed, samples were administered orally (5 mL/kg, b.w.). After 5.5 hours from the administration, Evan's Blue (0.5% Evan's Blue/saline) was injected (1 mL/rat) intravenously under no anesthesia. After 30 minutes from the shot, the intestine was removed by celiotomy and the area thereof facing mesentery was cut open. After removal of intestinal content, the spots in the intestine dyed by Evan's Blue were measured under a stereomicroscope, and the total length (mm) of the spots was determined by a counter and recorded.

[2] = target: T1, human COX-1 (Homo sapiens, UniProt P23219); assay: Determination of COX-1 inhibitory activity (microsome fraction, chemiluminescence); assay type: biochemical; conditions: microsome fraction 40 μg, arachidonic acid, 37° C. 25 minutes preincubation; read-out: Repression rate IC50 (μM) COX-1
T1 construct: made in house; host or cells: Sf-21 insect cells (recombinant baculovirus BAC-COX1, pFASTBAC1); microsome fraction
Procedure: A 1.8 kb DNA fragment containing human COX-1 cDNA (FASEB J., vol. 5 (9), p. 2304-2312 (1991)) prepared by the PCR method was inserted into plasmid pFASTBAC1 (CIBCOBRL) to obtain a plasmid pFBCOX1.
Using the plasmid pFBCOX1 and BAC-TO-BAC Baculovirus Expression System (GIBCOBRL), a virus stock BAC-COX1 of the recombinant baculovirus was prepared.
Sf-21 cells were inoculated in 125 mL of Sf-900 II SFM medium (GIBCOBRL) at a concentration of 1×10^6 cells/mL, and the medium was incubated at 27° C. for 24 hours. 0.75 mL of the virus stock BAC-COX1 of the recombinant baculovirus was added thereto, and the mixture was incubated further for 72 hours. The cells were separated from the medium by centrifugation (3000 rpm, 10 min), and washed with PBS twice. The cells were suspended in 10 mL of a Lysis buffer (0.1M Tris-HCl (pH 7.4), 5 mM EDTA), and were treated with a homogenizer (POLYTRON) three times at 20000 rpm for 20 seconds so that the cells were crushed. The supernatant obtained after centrifugation (2000 rpm, 10 minutes) was further centrifuged (40000 rpm, 45 minutes) to give a precipitate, which was resuspended in a Lysis buffer (0.1M Tris-HCl (pH 7.4), 5 mM EDTA), and the suspension was stored at −80° C.
Determination of COX-1 and COX-2 Inhibitory Activities
To a mixture of 20 μL of a reaction buffer previously concentrated 10 times (1M Tris-HCl (pH8.0), 50 mM EDTA, 1.0% Tween 20, 50 mM luminol, 100 μM hematin), 20 μL of the microsome fractions (COX-1: 40 μg, COX-2: 20 μg), and 55 μL of distilled water, a sample compound dissolved in DMF (5 μL) was added, and the mixture was left at 37° C. for 25 minutes. The reaction was started by the addition of 20 μM arachidonic acid (100 μL), and chemiluminescence amount during the 10-second period after the addition of arachidonic acid was determined by the use of Lumistar (BMG Lab technologies, GmbH). The inhibition rate was calculated, regarding that the enzyme activity when DMF ([…]) was added was 100%, and the enzyme activity when 4 mM flurbiprofen (5 μL) was added was 0%.

[3] = system: gastric mucosa; assay: Disorder of gastric mucosa; assay type: in vivo, SD rats; conditions: stomach, 300 mg/kg orally, fasted rats, 6 hours after dosing
Procedure: Disorder of Gastric Mucosa
Male SD origin male-rats (7 weeks old, CLEA Japan) were used. After 24 hours from the termination of food supply, samples were orally administered (5 mL/kg, b.w.). After 5.5 hours, Evan's Blue (0.5% Evan's Blue/saline) was injected intravenously (1 mL/rat) under no anesthesia. After 30 minutes from the shot, the stomach (with esophagus and duodenum of 1.5 to 2 cm length) was removed by celiotomy, and subsequently, the esophagus terminal was closed with a clip, and a 8 mL of 1% formalin solution was injected into the stomach through the duodenum, which was also closed with a clip after the injection. The stomach was left contacting with the 1% formalin solution for more than 10 minutes, and subsequently cut open from duodenum along the greater curvature of stomach. The stomach was washed and spread on a filter paper, and the length of each of the spots dyed by Evan's Blue (hemorrhagic portion: mucosal ablation to ulcer) was measured under a stereomicroscope, and the total length (mm) was calculated by a counter and recorded.

[4] = system: carrageenin edema of right hind limb plantar; assay: Anti-inflammatory activity, carrageenin edema method; assay type: in vivo, SD-rats; conditions: po
Procedure: Anti-Inflammatory Activity
Male SD-rats (6 weeks old, CLEA Japan) were used (1 group, n=6). The Carrageenin edema method was performed according to the method of Winter et. al., (Proc. Soc. Exp. Biol. Med., vol. 111, p. 544-547, 1962). After the volume of right hind limb plantar of the rat was determined, a sample was orally administered (1.0 mL, b.w.), and immediately water was orally administered in an amount of 5 mL/rat. Meanwhile, only the solvent of the sample was orally administered to rats in control. After 1 hour, a solution of 1% carrageenin in saline (0.05 mL) was injected into the right hind limb plantar subcutaneously to induce edema. After 2 and 3 hours later from the injection, volumes of the right hind limb plantar were determined. The repression rate (%) of the sample was calculated by comparing the difference of the volumes of the plantar before the carrageenin shot and 2 and 3 hours after the shot between the sample groups and the control groups.

[5] = system: adjuvant arthritis; assay: Anti-adjuvant-arthritic activity; assay type: in vivo, SD rats; conditions: 10 mg/kg orally once a day for 14 days; volume of left hind limb (not injected); day of reading not given
Procedure: Anti-Adjuvant-Arthritic Activity
Male SD origin male-rats (6 weeks old, CLEA Japan, 1 group: n=7) were used. The adjuvant arthritis method was conducted according to the method of Newbould B. B. et. al., (Brit. J. Pharmacol. Chemother., vol. 21, p. 127, 1963). Complete Freund's adjuvant (a suspension of killed tubercule bacillus in liquid paraffin at a concentration of 0.5%, 0.05 mL) was injected into the right hind limb footpad intracutaneouly to induce multiple arthritis. Samples were administered orally (10 mg/kg, b.w.), once a day for 14 days from the day before the injection day 0 to day 13. Volume of the left hind limb (not injected) was determined by the foot-volume measurement apparatus manufactured by Ugo Basile, on the day just before the adjuvant shot (Day 0), Day 10 and Day 14, and repression rate (%) was calculated comparing the values between the sample group and the control group.

[6] = 10 mg/kg orally, 2 hr after carrageenin injection, read-out: Repression rate (%) Dosage 10 mg/kg 2 hr later
[7] = 10 mg/kg orally, 3 hr after carrageenin injection, read-out: Repression rate (%) Dosage 10 mg/kg 3 hr later

T1 sequence (P23219 24-599): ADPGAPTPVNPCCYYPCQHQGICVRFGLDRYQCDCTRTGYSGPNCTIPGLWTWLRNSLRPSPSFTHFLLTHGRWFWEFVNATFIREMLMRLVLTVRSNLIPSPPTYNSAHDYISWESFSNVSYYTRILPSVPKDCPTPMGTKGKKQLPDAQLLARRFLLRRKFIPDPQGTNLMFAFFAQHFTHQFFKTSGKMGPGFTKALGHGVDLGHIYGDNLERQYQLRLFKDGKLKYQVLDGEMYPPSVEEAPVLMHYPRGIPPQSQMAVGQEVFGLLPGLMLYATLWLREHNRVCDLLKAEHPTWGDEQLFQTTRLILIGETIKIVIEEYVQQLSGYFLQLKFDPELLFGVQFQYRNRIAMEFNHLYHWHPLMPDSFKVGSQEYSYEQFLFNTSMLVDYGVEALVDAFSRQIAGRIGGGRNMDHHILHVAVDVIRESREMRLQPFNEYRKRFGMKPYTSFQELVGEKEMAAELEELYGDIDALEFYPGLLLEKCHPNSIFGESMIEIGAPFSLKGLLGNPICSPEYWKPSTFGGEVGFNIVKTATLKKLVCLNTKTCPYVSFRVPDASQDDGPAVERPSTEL

SMILES	Total length of dyed spots (mm) [1]	IC50 [2] [µM]	Total length of dyed spots (mm) [3]	inhibition in vivo at 10 mg/kg [4, 6] [%]	inhibition in vivo at 10 mg/kg [4, 7] [%]	Repression rate (%) Dosage 10 mg/kg [5]	inhibition in vivo at 10 mg/kg ([4]; 2 h, read-out: Repression rate (%) Dosage 10 mg/kg 2 hr later) [%]	inhibition in vivo at 10 mg/kg ([4]; 3 h, read-out: Repression rate (%) Dosage 10 mg/kg 3 hr later) [%]
CCCNc1c2ccccc2nc2c1c(C)nn2-c1ccccn1 [Example 2-6, N-[3-Methyl-1-(2-pyridinyl)-1H-pyrazolo[3,4-b]quinolin-4-yl]-N-propylamine]		21.7		43	35			
CCCOc1c2ccccc2nc2c1c(C)nn2-c1ccccn1 [Example 2-17, 3-Methyl-4-propoxy-1-(2-pyridinyl)-1H-pyrazolo[3,4-b]quinoline]	0 (300 mg/kg) mm	7.28		45	37	61* %		
Cc1nn(-c2ccccn2)c2[nH]c3cccc(F)c3c(=O)c12.Cl [Example 2-79, 5-Fluoro-3-methyl-1-(2-pyridinyl)-1,9-dihydro-4H-pyrazolo[3,4-b]quinolin-4-one hydrochloride]	0 (300 mg/kg) mm	7.8	0 (300 mg/kg) mm				37	33

Now from value to compound, other results behind:

Total length of dyed spots (mm) [1]	IC50 [2] [µM]	SMILES	Total length of dyed spots (mm) [3]	inhibition in vivo at 10 mg/kg [4, 6] [%]	inhibition in vivo at 10 mg/kg [4, 7] [%]	Repression rate (%) Dosage 10 mg/kg [5]	inhibition in vivo at 10 mg/kg ([4]; 2 h, read-out: Repression rate (%) Dosage 10 mg/kg 2 hr later) [%]	inhibition in vivo at 10 mg/kg ([4]; 3 h, read-out: Repression rate (%) Dosage 10 mg/kg 3 hr later) [%]
0 (300 mg/kg) mm	2.66	O=c1c2ccccc2[nH]c2c1cnn2-c1ccccn1 [Example 2-159, 1-(2-Pyridinyl)-1,9-dihydro-4H-pyrazolo[3,4-b]quinolin-4-one]	0 (300 mg/kg) mm	50	39			
	4.21	Cc1nn(-c2ccccn2)c2nc3ccccc3c(OC3CCCC3)c12 [Example 2-21, 4-Cyclopentyloxy-3-methyl-1-(2-pyridinyl)-1H-pyrazolo[3,4-b]quinoline]		52	45			
